{"source": "patent US20090182020A1", "about": "“SUBSTITUTED BIS(HETERO)AROMATIC N--ETHYLPROPIOLAMIDES AND USE THEREOF FOR PRODUCTION OF MEDICAMENTS” (GRUNENTHAL GMBH, priority 2005, published 2009)"}
{"molecular_target": "T1, mGluR5 receptor (pig) (Sus scrofa, UniProt I3LUI7)", "T1 construct": "450 μg protein from brain homogenate is incubated with 5 nM ^3[H]-MPEP; from tissue; host or cells: pig brain halves without medulla, cerebellum and pons", "T1 sequence (I3LUI7 19-1212)": "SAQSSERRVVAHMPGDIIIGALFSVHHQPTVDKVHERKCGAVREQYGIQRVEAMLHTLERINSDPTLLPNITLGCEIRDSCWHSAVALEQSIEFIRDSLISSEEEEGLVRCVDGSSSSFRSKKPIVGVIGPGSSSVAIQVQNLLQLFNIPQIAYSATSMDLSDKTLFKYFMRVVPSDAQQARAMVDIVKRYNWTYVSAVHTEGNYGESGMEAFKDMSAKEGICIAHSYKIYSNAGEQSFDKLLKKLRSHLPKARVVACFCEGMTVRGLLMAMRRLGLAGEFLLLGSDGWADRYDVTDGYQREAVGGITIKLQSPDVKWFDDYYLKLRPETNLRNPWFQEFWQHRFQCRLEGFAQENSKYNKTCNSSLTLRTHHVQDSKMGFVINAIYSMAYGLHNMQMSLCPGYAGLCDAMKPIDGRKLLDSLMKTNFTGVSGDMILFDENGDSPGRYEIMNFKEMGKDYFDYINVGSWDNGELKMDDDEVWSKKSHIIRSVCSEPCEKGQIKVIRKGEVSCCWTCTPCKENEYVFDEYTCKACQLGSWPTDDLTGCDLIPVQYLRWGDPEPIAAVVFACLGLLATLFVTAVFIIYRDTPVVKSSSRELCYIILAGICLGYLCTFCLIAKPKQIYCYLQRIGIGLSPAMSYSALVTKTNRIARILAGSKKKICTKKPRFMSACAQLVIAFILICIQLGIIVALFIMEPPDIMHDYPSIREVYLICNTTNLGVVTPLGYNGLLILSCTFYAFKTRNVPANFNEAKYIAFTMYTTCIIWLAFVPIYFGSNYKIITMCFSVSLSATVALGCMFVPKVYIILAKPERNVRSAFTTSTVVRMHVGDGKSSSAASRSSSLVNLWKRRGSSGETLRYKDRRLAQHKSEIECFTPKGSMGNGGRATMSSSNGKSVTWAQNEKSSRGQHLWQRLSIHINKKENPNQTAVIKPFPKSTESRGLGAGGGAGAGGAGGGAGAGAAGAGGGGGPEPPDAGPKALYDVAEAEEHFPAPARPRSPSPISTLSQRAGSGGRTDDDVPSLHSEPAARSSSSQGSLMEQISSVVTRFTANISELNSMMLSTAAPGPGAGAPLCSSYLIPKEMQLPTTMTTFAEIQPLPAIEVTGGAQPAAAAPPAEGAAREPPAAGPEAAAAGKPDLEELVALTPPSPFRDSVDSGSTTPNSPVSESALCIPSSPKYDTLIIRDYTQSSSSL", "assay": "[3H]-MPEP bond in the mGluR5 receptor bond assay (pig brain homogenate)", "assay_type": "binding", "conditions": "5 nM [3H]-MPEP; pig brain homogenate", "method": "(§1) I. Method for Determining the Inhibition of the [^3H]-MPEP Bond in the mGluR5 Receptor Bond Assay\n(§2) Pig brain homogenate is produced by homogenisation (Polytron PT 3000, Kinematica AG, 10,000 rpm for 90 seconds) of pig brain halves without medulla, cerebellum and pons in buffer pH 8.0 (30 mM Hepes, Sigma, order no. H3375+1 tablet complete to 100 ml, Roche Diagnostics, order no. 1836145) in the ratio 1:20 (brain weight/volume) and differential centrifugation at 900×g and 40,000×g. In each case, 450 μg protein from brain homogenate is incubated with 5 nM ^3[H]-MPEP (Tocris, order no. […]\n(§3) Thereafter, the batches are filtered with the help of a Brandel Cell Harvester (Brandel, TYP Robotic 9600) on unifilter plates with glass fibre filter mats (Perkin Elmer, order no. 6005177) and subsequently washed with buffer (as above) 3 times with in each case 250 μl per sample. The filter plates are subsequently dried for 60 min at 55° C. 30 μL Ultima Gold™ scintillator (Packard BioScience, order no. 6013159) is subsequently added per well and the samples are measured after 3 hours on the β-counter (Mikrobeta, Perkin Elmer). The unspecific bond is determined by addition of 10 μM MPEP (Tocris, order no. 1212).", "units": {"IC50": "nM"}}
{"smiles": "CN(CCc1ccccc1)C(=O)C#Cc1cccc(Cl)c1", "note": "[Example 1, 3-(3-chlorophenyl)-N-methyl-N-phenethylpropiolamide]", "IC50": 12}
{"smiles": "CN(CCc1cccc(C(F)(F)F)c1)C(=O)C#Cc1cccc(Cl)c1", "note": "[Example 222, 3-(3-chlorophenyl)-N-methyl-N-(3-(trifluoromethyl)phenethyl)propiolamide]", "IC50": 75}
{"smiles": "O=C(C#Cc1cccc(Cl)c1)NCCc1cccc(C(F)(F)F)c1", "note": "[Example 219, 3-(3-chlorophenyl)-N-(3-(trifluoromethyl)phenethyl)propiolamide]", "IC50": 450}
{"smiles": "CN(CCn1cccc1)C(=O)C#Cc1cccc(Cl)c1", "note": "[Example 233, N-(2-(1H-pyrrol-1-yl)ethyl)-3-(3-chlorophenyl)-N-methylpropiolamide]", "IC50": 31}
{"molecular_target": "T1, mGluR5 receptor (pig)", "assay": "[3H]-MPEP bond in the mGluR5 receptor bond assay (pig brain homogenate)", "assay_type": "binding", "conditions": "10 μM test compound; 5 nM [3H]-MPEP; 450 μg protein pig brain homogenate; 60 min room temperature", "method": "as §1, §2, §3", "units": {"inhibition at 10 µM": "%"}}
{"smiles": "O=C(C#Cc1ccc(F)cc1)NCCc1ccc(Cl)cc1", "note": "[Example 140, N-(4-chlorophenethyl)-3-(4-fluorophenyl)propiolamide]", "inhibition at 10 µM": 53}
{"smiles": "N#Cc1cccc(C#CC(=O)NCCc2ccc(F)cc2)c1", "note": "[Example 99, 3-(3-cyanophenyl)-N-(4-fluorophenethyl)propiolamide]", "inhibition at 10 µM": 89}
{"smiles": "Cc1cc(C#CC(=O)N(C)CCc2ccccc2)ccc1F", "note": "[Example 41, 3-(4-fluoro-3-methylphenyl)-N-methyl-N-phenethylpropiolamide]", "inhibition at 10 µM": 92}
{"smiles": "N#Cc1cccc(C#CC(=O)NCCc2ccc(Cl)cc2)c1", "note": "[Example 192, N-(4-chlorophenethyl)-3-(3-cyanophenyl)propiolamide]", "inhibition at 10 µM": 91}
{"smiles": "O=C(C#Cc1cccs1)NCCc1cccs1", "note": "[Example 73, 3-(thiophene-2-yl)-N-(2-(thiophene-2-yl)ethyl)propiolamide]", "inhibition at 10 µM": 76}
{"system": "rats", "assay": "Formaline test in rats (phase 2, pain rate)", "assay_type": "in vivo, rat", "conditions": "i.v. administration at 21.5 mg/kg, formaline test phase 2", "method": "III. Formaline Test in Rats:\nThe formaline test (Dubuisson, D. and Dennis, S. G., 1977, Pain, 4, 161-174) represents a model for acute and chronic pain. A biphasic nociceptive reaction, which is recorded by observation of three clearly differentiable behavioural patterns, is induced by a single formaline injection into the dorsal side of a rear paw in freely mobile test animals. The reaction has two phases: Phase 1=Immediate reaction (duration up to 10 min; paw shaking, licking), Phase 2=Late reaction (after a rest phase; likewise, paw shaking, licking; duration up to 60 min). The 1st phase reflects a direct stimulation of the peripheral nocisensors with high spinal nociceptive input or glutamate release (acute pain phase); the 2nd phase reflects a spinal and peripheral hypersensitisation (chronic pain phase). In the investigations presented here, the chronic pain component (phase 2) was evaluated.\nFormaline with a volume of 50 μl and a concentration of 5% is administered subcutaneously into the dorsal side of the right rear paw of each animal. […] The calculation of PR is performed on the basis of a numerical weighting (=in each case factor 1, 2, 3) of the observed forms of behaviour (corresponding behavioural score 1, 2, 3) and is calculated with the following formula: […]", "units": {"inhibition of the pain reaction": "%"}}
{"smiles": "CN(CCc1ccccc1)C(=O)C#Cc1cccc(Cl)c1", "note": "[Example 1, 3-(3-chlorophenyl)-N-methyl-N-phenethylpropiolamide]", "inhibition of the pain reaction": 60}
